Reference: PubChem BioAssay (NCI)
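Values below derive from 48-hour exposures of cells grown in 96-well plates, with endpoints linearly interpolated between the two concentrations bracketing the appropriate inhibition level. Definition used: TGI = concentration required for complete inhibition of growth.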

Key:
Test in all cases: growth of human tumour cells (NCI), 48 h
[1] = test system: HT29 colon
[2] = test system: LOX IMVI melanoma
[3] = test system: NCI-H522 lung
[4] = test system: BT-549 breast
[5] = test system: HS 578T breast
[6] = test system: HCT-15 colon
[7] = test system: SK-OV-3 ovarian
[8] = test system: MALME-3M melanoma
[9] = test system: UO-31 renal
[10] = test system: HL-60(TB) leukemia
[11] = test system: SK-MEL-2 melanoma
[12] = test system: SNB-75 CNS
[13] = test system: OVCAR-8 ovarian
[14] = test system: MDA-MB-435
[15] = test system: 786-0 renal
[16] = test system: SK-MEL-5 melanoma
[17] = test system: K-562 leukemia
[18] = test system: CCRF-CEM leukemia
[19] = test system: MDA-MB-231 breast
[20] = test system: OVCAR-3 ovarian
[21] = test system: HOP-62 NSCLC
[22] = test system: UACC-257 melanoma
[23] = test system: NCI-H23 lung
[24] = test system: SF-539 CNS
[25] = test system: EKVX NSCLC
[26] = test system: HOP-92 NSCLC
[27] = test system: OVCAR-5 ovarian
[28] = test system: PC-3 prostate
[29] = test system: SW-620 colon
[30] = test system: SN12C renal
[31] = test system: KM12 colon
[32] = test system: A549 NSCLC
[33] = test system: DU-145 prostate
[34] = test system: RPMI-8226 leukemia
[35] = test system: TK-10 renal
[36] = test system: COLO 205 colon
[37] = test system: MOLT-4 leukemia
[38] = test system: SNB-19 CNS
[39] = test system: SF-295 CNS
[40] = test system: ACHN renal
[41] = test system: SF-268 CNS
[42] = test system: UACC-62 melanoma
[43] = test system: NCI/ADR-RES ovarian
[44] = test system: NCI-H226 lung
[45] = test system: U251 CNS
[46] = test system: M14 melanoma
[47] = test system: NCI-H460 lung
[48] = test system: RXF 393 renal
[49] = test system: HCT-116 colon
[50] = test system: IGROV1 ovarian
[51] = test system: CAKI-1 renal
[52] = test system: A498 renal
[53] = test system: SK-MEL-28 melanoma
[54] = test system: T-47D breast
[55] = test system: MDA-N

Measured: TGI

COC(=O)Cc1c([C@H]2[C@H](CC(=O)OC)c3ccccc3N2C(C)=O)[nH]c2ccccc12
> 100 µM: all assays above
